Experimental data taken from ChEMBL document CHEMBL1153102, “Synthesis and antiproliferative activity of pyrrolo[3,2-b]pyridine derivatives against melanoma” (Bioorg Med Chem Lett, 2010).

Experiments:
[1] = Cytotoxicity against human A375P cells by MTT assay; type: functional, cell-based
HS27 = assay: Cytotoxicity against human HS27 cells by MTT assay; type: cell-based

| Structure (SMILES) | IC50 [1] [µM] | IC50 (HS27) [µM] |
| --- | --- | --- |
| COC(=O)c1ccc2c(ccn2-c2ccc(NC(=O)c3cc(N4CCOCC4)cc(C(F)(F)F)c3)cc2)n1 | > 10 | > 10 |
| O=C(Nc1ccc(-n2ccc3nc(C(=O)NCc4ccccc4)ccc32)cc1)c1ccc(Cl)c(C(F)(F)F)c1 | 0.7 | 1.5 |
| NC(=O)c1ccc2c(ccn2-c2ccc(NC(=O)Nc3ccc(Cl)c(Cl)c3)cc2)n1 | 3.2 | 6.6 |
| NC(=O)c1ccc2c(ccn2-c2ccc(NC(=O)Nc3ccc(Cl)c(C(F)(F)F)c3)cc2)n1 | 9.9 | > 10 |
| O=C(Nc1ccc(-n2ccc3nc(C(=O)NCc4ccccc4)ccc32)cc1)c1cccc(C(F)(F)F)c1 | 3 | > 10 |
| COC(=O)c1ccc2c(ccn2-c2ccc(NC(=O)Nc3ccc(Cl)c(Cl)c3)cc2)n1 | 3.8 | 2.8 |
| COC(=O)c1ccc2c(ccn2-c2ccc(NC(=O)c3ccc(Cl)c(C(F)(F)F)c3)cc2)n1 | 3 | 2.9 |
| O=C(Nc1ccc(-n2ccc3nc(C(=O)NCc4ccccc4)ccc32)cc1)c1cc(N2CCOCC2)cc(C(F)(F)F)c1 | > 10 | > 10 |
| O=C(Nc1ccc(-n2ccc3nc(C(=O)NCc4ccccc4)ccc32)cc1)c1ccc(N2CCOCC2)c(C(F)(F)F)c1 | 0.9 | 2.6 |
| COC(=O)c1ccc2c(ccn2-c2ccc(NC(=O)c3ccc(N4CCOCC4)c(C(F)(F)F)c3)cc2)n1 | 9.8 | > 10 |
| COC(=O)c1ccc2c(ccn2-c2cccc(NC(=O)c3ccc(Cl)c(C(F)(F)F)c3)c2)n1 | > 10 | > 10 |
| COC(=O)c1ccc2c(ccn2-c2ccc(NC(=O)Nc3ccc(Cl)c(C(F)(F)F)c3)cc2)n1 | 3.6 | 8.2 |
| O=C(Nc1ccc(-n2ccc3nc(C(=O)NCc4ccccc4)ccc32)cc1)Nc1cccc(Cl)c1Cl | > 10 | > 10 |
| NC(=O)c1ccc2c(ccn2-c2ccc(NC(=O)Nc3cccc(Cl)c3Cl)cc2)n1 | 4.6 | 9.8 |
| COC(=O)c1ccc2c(ccn2-c2ccc(NC(=O)Nc3cccc(Cl)c3Cl)cc2)n1 | 6.4 | > 10 |
| COC(=O)c1ccc2c(ccn2-c2cccc(NC(=O)Nc3cccc(C(F)(F)F)c3)c2)n1 | > 10 | > 10 |
| NC(=O)c1ccc2c(ccn2-c2ccc(NC(=O)c3cccc(C(F)(F)F)c3)cc2)n1 | > 10 | > 10 |
| O=C(Nc1ccc(-n2ccc3nc(C(=O)NCc4ccccc4)ccc32)cc1)Nc1ccc(Cl)c(C(F)(F)F)c1 | 1.1 | 3 |
| O=C(Nc1ccc(-n2ccc3nc(C(=O)NCc4ccccc4)ccc32)cc1)Nc1cccc(C(F)(F)F)c1 | 7.9 | > 10 |
| COC(=O)c1ccc2c(ccn2-c2cccc(NC(=O)Nc3ccc(Cl)c(C(F)(F)F)c3)c2)n1 | 9.5 | > 10 |
| NC(=O)c1ccc2c(ccn2-c2ccc(NC(=O)c3ccc(Cl)c(C(F)(F)F)c3)cc2)n1 | 8.9 | > 10 |
| COC(=O)c1ccc2c(ccn2-c2ccc(NC(=O)c3cccc(C(F)(F)F)c3)cc2)n1 | 9.5 | 9.8 |
| COC(=O)c1ccc2c(ccn2-c2cccc(NC(=O)c3cccc(C(F)(F)F)c3)c2)n1 | > 10 | > 10 |
| CNC(=O)c1cc(Oc2ccc(NC(=O)Nc3ccc(Cl)c(C(F)(F)F)c3)cc2)ccn1 [SORAFENIB] | 5.6 |  |
